Reference: US11001572B2, “Pyrimidine derivative, method for preparing same and use thereof in medicine” (Zhejiang Hisun Pharmaceutical Co., Ltd., priority 2016, dated 2021)

Assays:
[1] = Body weight and weight loss rate of Huh7 tumor-bearing mice during administration; type: in vivo, BALB/c nude mice; conditions: 25 mg/kg (IP, bid), 50 mg/kg (IP, bid) and 300 mg/kg (PO, bid); within 22 days
Experimental: (§1) Each group of animals was administrated (intraperitoneal injection (ip) or oral administration (po)) a test substance twice a day (bid) at a fix time per day according to the body weight of the animals. The first dose was administered on the day of grouping ([…]), and continued for 22 days, the body weight of the animals was recorded daily.
The calculation formula for the weight loss rate of animals is (see FIG. 3 for the results): Weight loss rate of animals=100%×(BWinitial−BWt)/BWinitial
wherein, BWt represents the body weight of the animal at each measurement during administration; BWinitial represents the body weight of the animal at the time of grouping administration.

[2] = system: Huh7 tumor-bearing BALB/c nude mice xenografts; experiment: Growth inhibition of Huh7 xenografts in BALB/c nude mice; type: in vivo; conditions: 25 mg/kg IP, bid
Experimental: On day 0, Huh7 cells were cultured in DMEM medium containing 10% of fetal bovine serum, 100 U of penicillin, and 100 μg/mL of streptomycin. And cultured in an incubator of 37° C., 5% CO2.
Each mouse was inoculated subcutaneously in the right axilla with 150 μL of cell suspension (5.0×10^6 cells/mouse) under sterile conditions. On day 12 after inoculation, when the tumor grew to a volume of 200-300 mm^3, mice with similar tumor volume and good shape were selected (the shape was as single spherical as possible, no irregular shape or multiple tumors gathered together) and divided into 5 groups, each group had 9 mice.
as §1
The formation of tumor in the inoculated part of each group of animals was observed. The long diameter (Y) and short diameter (X) of the tumor nodules were measured twice a week using vernier calipers and calculated according to the following formula: Volume of tumor nodules(V):V=(X^2Y)/2.
Evaluation index of antitumor activity: tumor growth inhibition rate TGI (%), relative tumor proliferation rate T/C (%).
The relative tumor volume (RTV) is calculated as: RTV=100×TVt/TVinitial
The calculation formula for the relative tumor proliferation rate (% T/C) is: % T/C=100%×(RTVT/RTVC)

SMILES | body weight change [1] | Tumor growth inhibition rate (TGI %) ([2]; Day 16 after inoculation) | Tumor growth inhibition rate (TGI %) ([2]; Day 20 after inoculation) | Tumor growth inhibition rate (TGI %) ([2]; Day 23 after inoculation) | Tumor growth inhibition rate (TGI %) ([2]; Day 27 after inoculation) | Tumor growth inhibition rate (TGI %) ([2]; Day 30 after inoculation) | Tumor growth inhibition rate (TGI %) ([2]; Day 34 after inoculation) | Tumor weight inhibition rate (%) ([2]; end of the experiment)
C=CC(=O)Nc1cc(N2CCN(CC)C3(CC3)C2)ccc1Nc1cc(N(C)C(=O)Nc2c(Cl)c(OC)cc(OC)c2Cl)ncn1 [Example 5, N-(2-((6-(3-(2,6-Dichloro-3,5-dimethoxyphenyl)-1-methylureido)pyrimidin-4-yl)amino)-5-(4-ethyl-4,7-diazaspiro[2.5]octan-7-yl)phenyl)acrylamide] | no significant body weight change | – | – | – | – | – | – | –
C=CC(=O)Nc1cc(N2CCN(CC)CC2)ccc1Nc1cc(N(C)C(=O)Nc2c(Cl)c(OC)cc(OC)c2Cl)ncn1 [Example 108 of WO2015057938] | – | 34% | 21% | 21% | 29% | 24% | 16% | 2.2%
